Experimental data reported in patent US20080305038A1, “Transport of Nano-and Macromolecular Structures Into Cytoplasm and Nucleus of Cells” (LUDWIG-MAXIMILIANS-UNIVERSITÄT, priority 2005, published 2008).
Entries after “also recorded” stand apart in the source; their conditions may differ.

What was measured:
HeLa cells = assay: Cell surface biotinylation for cargo (FITC-Avidin) uptake, FACS; type: cell-based; conditions: HeLa cells pretreated 30 minutes at 4° C. at 185 μM, then 75 pmol FITC-Avidin, one hour at 37° C.
Procedure: (§1) Biotin-HPDP (Pierce, #21341) was solubilized in DMF and diluted in PBS (pH=7.4) to a final concentration of 100 μg/ml. 500 μl of this solution (=92.6 nmol) were incubated on CHO and HeLa cells (1×10^6 cells per Well) for 30 minutes at 4° C. After washing twice with PBS, 5 μg (=75 pmol) Avidin-FITC (Sigma, #A9275) were added and cells were incubated for 1 h at 37° C. After incubation, cells were washed twice with PBS and harvested with Trypsin-EDTA (Invitrogen, #25300-054). […] 1000 cells per sample were counted.
(§2) Instead of Biotin-HPDP, also Biotin (Sigma, #B4639), Biotin-Maleimid (Sigma, #B1267) or PBS (for determination of unspecific binding of Avidin-FITC) was incubated on the cells at equimolar concentrations.

CHO cells = assay: as above; type: cell-based; conditions: CHO cells pretreated 30 minutes at 4° C. at 185 μM, then 75 pmol FITC-Avidin, one hour at 37° C.
Procedure: as §1, §2

intact cells = assay: Dependency of cellular and nuclear uptake on TP-substituent (chemical modification), intact cells; type: cell-based; conditions: chemically modified TP-substituent of FITC-BSA-TP
Procedure: 1.3 Modification of FITC-BSA-TP Conjugates FITC-BSA was reacted with a 10-fold excess of cystein in PBS (pH=8, He-saturated) for 3 h. Photometric determination of cleaved thiopyridone indicated complete reaction of FITC-BSA-TP to FITC-BSA-Cys. The conjugate was purified chromatographically (Sephadex G-25 superfine HR 10/10 column; Pharmacia, Uppsala, Sweden). FITC-BSA-TP was reacted in presence of 13 mM DTT for 2 h and purified by chromatography in order to obtain a FITC-BSA conjugate with free thiol-function. Determination of degree of conjugation with Ellmanns' reagent indicated complete separation of the thiopyridone moiety, which, in consequence, led to FITC-BSA-SH. The synthesized FITC-BSA-SH conjugate was further reacted with a 50-fold excess of N-ethylmaleimide for 2 h and purified by chromatography subsequently. Controlling the product for remaining thiol moieties by using Elmanns' reagent indicated a complete reaction to FITC-BSA-NEM. 1.4 Coupling of FITC and SPDP to plasmid-DNA Coupling of FITC and SPDP with plasmid-DNA was carried out by photochemical coupling using psoralenamin. Therefore, a kit from company Sima was used (PS-amine). Coupling was carried out following the manufacturers' instructions. 4 μl of reconstituted psoralenamine solution (4.83 psoralenamine) were pipetted to 100 μl solubilized DNA (μCLuc in pur. water, 200 μg/ml DNA). The resulting solution was vortexed vigorously. The solution was irradiated with UV (λ=366 nm, 6 watt, 850 μwatt/cm^2) for 45 minutes on ice. Portions of each 50 μl were purified using a G-25 Microspin column (Amersham) and, subsequently, 2 μl 1×PBS were added. To one 50 μl fraction of the purified Psoralenamin-coupled DNA 2 μl FITC-NHS solution ([…] in DMF) were added. To the other 50 μl fraction a mixture consisting of 2 μl FITC-NHS (10 mg/ml in DMF) 2 μl SPDP (10 mg/ml in EtOH) were added. The solutions were agitated for 1.5 h at room temperature. Subsequent thereto plasmid-DNA conjugates were purified repeatedly using a G-25 Microspin column (Amersham), and used for cell culture experiments. […]

HepG2 cells [1] = assay: Uptake in non-fixed and lysed cells, epifluorescence microscopy; type: cell-based
Procedure: In order to exclude artifacts resulting from fixing of cells FITC-modified BSA and FITC-BSA-TP conjugates (5 μM) were incubated for 1 h with HepG2 cells. Subsequently, cells were immediately transferred in PBS or lysed with lysis buffer within 30 minutes and analyzed via epifluorescence microscopy. […] Consequently, artifacts can be excluded due to fixing of cells.
Additionally, cytoplasma membrane of HepG2 of cells was lysed with lysis buffer (20 mM HEPES, 10 mM KCl, 0.5 mM EDTA, 0.1% Triton X-100, pH7.5) subsequent to incubation. […] Consequently, FITC-BSA-TP conjugates are localized in the nucleus.

HepG2 cells [2] = assay: Uptake of conjugates into cells, epifluorescence microscopy; type: cell-based; conditions: 1 h incubation, 5 μM, fixed with paraformaldehyde
Procedure: (§3) Corresponding cell lines were seeded in 8-chamber sample carriers (Falcon, #4108, BD Bioscience, Belgium) resulting in about 70-80% confluence next day. Cells were incubated along with inventive conjugates for 1 h at 37° C. and 5% CO2 in an incubator (c=5 μM). Subsequently thereto cells were washed twice with PBS and fixed with a solution containing 4% paraformaldehyde. The nucleoli were colored by using the fluorescence dye DAPI (0.3 μM) or propidiumiodid (3 μM) and cells were embedded (Vectashield, Vector Laboratories, Burlingame, Calif., USA). Photographs were taken using a Sony 3CCD camera having an Axiovert 135-microscope (Carl-Zeiss, Göttingen, Germany; objective: Plan-Neofluar 100×/1.3 oil). Optical transsections for laser scanning microscopy were performed using a confocal microscope having three channels (TCS 4D; Leica Inc. Deerfield, Ill.) equipped with a Plan Apo 63×/1.32 oil objective). Both fluorescence dyes FITC and propidiumiodide were irradiated at wavelengths 488 nm and 567 nm using an argon/krypton laser. 256×256 8 bit pictures were generated having an axial distance of 250 nm and a pixel size of […]. Each picture series consisted of about 20-25 pictures. Both fluorochromes were mapped sequentially in the same nucleolus layer.
Therefore, HepG2 cells were incubated for 1 h with FITC-labelled BSA conjugates (5 μm) and fixed with paraformaldehyde. Results were analysed by epifluorescence microscopy (see FIG. 2). The cellular and nuclear epifluorescence photographs show an FITC signal of BSA in the left column and an FITC-BSA-TP signal in the right column. The corresponding nucleoli were colored using the fluorescent dye propidiumiodid.
Dextran constructs and modifications were prepared analogously to BSA constructs as shown above in section 2.1. As a starting material an amino-modified dextran was used having a molecular weight of 70,000 (MW). […] Analysis was carried out using epifluorescence microscopy (see FIG. 4). The corresponding nucleoli were colored using the fluorescent dye propidiumiodid.
Similar as shown in 2.1 and 2.2 IgG1 constructs were analyzed as to whether they may be transported into the cells upon TP modification. IgG1 constructs and modifications were prepared analogously to BSA and dextran constructs as shown above in sections 2.1 and 2.2. As a starting material bovine IgG was used having a molecular weight of approximately 130,000 (MW). […] Analysis was carried out using epifluorescence microscopy (see FIG. 5). The corresponding nucleoli were colored using the fluorescent dye propidiumiodid.
PEG based negatively charged liposomes were used showing distal unmodified (carboxylic moiety) or TP-modified PEG chains. The liposomes were modified with fluorescence labelled lipids. Thereafter, HepG2 cells were coincubated with fluorescence labelled liposomes and fixed at different times. In order to detect uptake by cells and nucleus, epifluorescence microscopy was carried out (see FIG. 7). The nucleoli were colored with DAPI. From top to bottom a control experiment and the results from 1, 1.5, 2.5 and 4 h incubation are shown.
Therefore, a reporter plasmid encoding the luciferase gene and having a size of 6.4 kb was TP modified and incubated with HepG2 cells for 1 h.

HepG2 cells [3] = assay: Quantification of cellular and nuclear uptake by flow cytometry (FACS); type: cell-based; conditions: 1 h incubation; for nuclear uptake, nucleus associated FITC fluorescence (FACS): cell lysis with Nonidet P 40, released nucleoli; for cellular uptake (FACS): whole cells detached with trypsine
Procedure: Therefore, HepG2 cells were incubated for 1 h with FITC labelled constructs or with FITC labelled and TP-modified conjugates as used in experiments 1 to 4. After incubation cells were detached from the bottom of the cell culture plates (whole cells) by using either a trypsine containing solution or a trypsine containing solution supplemented with detergent Nonidet P 40. Detergent Nonidet P 40 leads to lysis of cytoplasm membranes and release of nucleoli. Propidiumiodid was added to trypsine buffer in order to identify the nucleoli.

HepG2 cells [4] = assay: Cellular and nuclear uptake, confocal laser scanning microscopy; type: cell-based
Procedure: as §3
Confocal laser scanning microscopy was additionally carried out (see FIG. 3), since in epifluorescence, microscopy the resulting signal assumable may be due to association of the FITC-BSA-TP conjugates with the nuclear membrane.

[5] = Influence of TP-modification on activity of β-galactosidase; type: biochemical
Procedure: (§4) Analogous to sections 2.1 to 2.3 above the enzyme β-galactosidase was modified with TP. […] Subsequent to modification HepG2 cells were incubated with (TP) modified β-galactosidase (5 μM) for 1 h or 24 h and then fixed in paraformaldehyde. β-galactosidase activity was visualized by using X-Gal (see FIG. 6).

HepG2 cells [6] = assay: Uptake of β-galactosidase, activity visualized by X-Gal; type: cell-based; conditions: 5 μM; for cellular uptake of β-galactosidase / nuclear uptake of β-galactosidase: 1 h or 24 h
Procedure: as §4

For `O=C(CCCC[C@@H]1SC[C@@H]2NC(=O)N[C@@H]21)NCCCCCCNC(=O)CCSSc1ccccn1` [Biotin-HPDP, N-[6-(Biotinamido)hexyl]-3′-(2′-pyridyldithio)propionamide], the “delivery of cargo (FITC-Avidin) to cells, FITC-positive cells by FACS” value (from here on “delivery of cargo (FITC-Avidin) to cells”) (HeLa cells) was “efficiently deliver cargo molecules to cells” and the “delivery of cargo (FITC-Avidin) to cells” value (CHO cells) was “efficiently deliver cargo molecules to cells”.

With Biotin-Maleimid the “delivery of cargo (FITC-Avidin) to cells” value (HeLa cells) was “highly efficient cargo accumulation at the cellular surface” and the “delivery of cargo (FITC-Avidin) to cells” value (CHO cells) was “highly efficient cargo accumulation at the cellular surface”.

With “FITC-BSA-NEM: FITC-BSA-SH reacted with excess N-ethylmaleimide, thiol blocked” the “cellular or nuclear uptake” value (intact cells) was “Neither the free sulfhydryl moiety nor the sulfhydryl moiety blocked by N-ethylmaleimide mediated cellular or nuclear uptake”.

For “FITC-BSA-SH: FITC-BSA-TP reacted with DTT, giving FITC-BSA conjugate with free thiol-function”, the “cellular or nuclear uptake” value (intact cells) was “Neither the free sulfhydryl moiety nor the sulfhydryl moiety blocked by N-ethylmaleimide mediated cellular or nuclear uptake”.

With “FITC-BSA-TP: FITC-labelled BSA reacted with SPDP; thiopyridyl (PDP) conjugation degree ~9-10 per BSA” the “distribution in fixed versus non-fixed cells” value (HepG2 cells [1]; 5 μM, 1 h, transferred in PBS without fixing, epifluorescence) was “identical in both fixed and non-fixed HepG2 cells”, the “fluorescence signal after lysis of cytoplasma membrane” value (HepG2 cells [1]; lysis buffer with 0.1% Triton X-100 after incubation) was “a fluorescence signal was clearly observed in the nucleus” and the “cellular uptake (uptake into cytoplasm)” value (HepG2 cells [2]) was “uptake of FITC-BSA-TP constructs into cytoplasm and nucleus”. For the same compound, the “nuclear uptake (uptake into the nucleus)” value (HepG2 cells [2]) was “clearly observable; also recorded: uptake of FITC-BSA-TP constructs into cytoplasm and nucleus”, the “cellular or nuclear uptake” value (intact cells) was “cellular and nuclear uptake are only observable if an intact TP-substituent is present” and the “nuclear uptake, nucleus associated FITC fluorescence (FACS)” value (“nuclear uptake … (FACS)” for short) (HepG2 cells [3]) was 63%. For the same compound, the “cellular uptake (FACS)” value (HepG2 cells [3]) was 78%, the “cellular uptake (localization in the cytoplasm)” value (HepG2 cells [4]) was “cellular uptake” and the “nuclear uptake (localization in the nucleus)” value (HepG2 cells [4]) was “Uptake of BSA into the nucleus is clearly observable; also recorded: nuclear uptake of FITC-BSA-TP is observable”.

For “FITC-BSA: BSA labelled with carboxyfluorescein-N-hydroxysuccinimidester, without TP modification”, the “cellular uptake (uptake into cytoplasm)” value (HepG2 cells [2]) was “Uptake of non-modified FITC-BSA into cytoplasm of HepG2 cells could also be observed”, the “nuclear uptake (uptake into the nucleus)” value (HepG2 cells [2]) was “no uptake of FITC-BSA into the nucleus could be observed” and the “nuclear uptake … (FACS)” value (HepG2 cells [3]) was 51%. The “cellular uptake (FACS)” value (HepG2 cells [3]) was 55%, the “cellular uptake (localization in the cytoplasm)” value (HepG2 cells [4]) was “localization in the cytoplasm” and the “nuclear uptake (localization in the nucleus)” value (HepG2 cells [4]) was “no localization of non-modified FITC-BSA in the nucleus could be observed”.

With FITC-Dextran the “cellular uptake (uptake into cytoplasm)” value (HepG2 cells [2]) was “Uptake of non-modified FITC-Dextran into cytoplasm of HepG2 cells could also be observed”, the “nuclear uptake (uptake into the nucleus)” value (HepG2 cells [2]) was “no uptake of FITC-Dextran into the nucleus could be observed” and the “nuclear uptake … (FACS)” value (HepG2 cells [3]) was 7%. For the same compound, the “cellular uptake (FACS)” value (HepG2 cells [3]) was 25%.

For “FITC-β-galactosidase-TP: enzyme β-galactosidase modified with thiopyridyl via SPDP, conjugation degree about 1”, the “influence of TP-modification on activity of β-galactosidase” value [5] was “does not exhibit any influence on activity of β-galactosidase”, the “cellular uptake of β-galactosidase” value (HepG2 cells [6]) was “uptake of β-galactosidase into cytoplasm and nucleus into many cells” and the “nuclear uptake of β-galactosidase” value (HepG2 cells [6]) was “uptake of β-galactosidase into cytoplasm and nucleus into many cells”. The “nuclear uptake of β-galactosidase” value (HepG2 cells [6]; listed as (TP) modified β-galactosidase) was “clearly observable” and the “positive cells and nucleoli” value (HepG2 cells [6]; 24 h incubation) was “almost all cells and their nucleoli showed a positive signal”.

With “non-modified β-galactosidase: enzyme β-galactosidase without TP modification, control” the “cellular uptake of β-galactosidase” value (HepG2 cells [6]) was “negligible” and the “nuclear uptake of β-galactosidase” value (HepG2 cells [6]) was “no nuclear uptake”.
